Results taken from ChEMBL document CHEMBL1144021, “Molecular determinants of the anticonvulsant felbamate binding site in the N-methyl-D-aspartate receptor” (J Med Chem, 2008).
Activity calls are given as the source filed them. The rule behind the calls is not given here.

Assays:
[1] = Binding affinity to NR2B receptor M3c […] mutant
[2] = test system: Glutamate receptor ionotropic, NMDA 2B (Homo sapiens), Q13224 [Q656A]; test: Inhibition of NR2B receptor post-M3 Q656A mutant expressed in Xenopus oocytes assessed as NMDA current at 0.5 mM relative to control; type: cell-based; conditions: Oocyte
[3] = test system: Glutamate receptor ionotropic, NMDA 2B (Homo sapiens), Q13224 [F554A]; test: Inhibition of NR2B receptor Pre-M1 F554A mutant expressed in Xenopus oocytes assessed as NMDA current at 0.5 mM relative to control; type: cell-based; conditions: Oocyte
[4] = Ratio of Kapp for wild type NR2B receptor to Kapp for NR2B receptor ATD T233A mutant
[5] = test system: Glutamate receptor ionotropic, NMDA 2B (Homo sapiens), Q13224 [F176A]; test: Inhibition of NR2B receptor ATD F176A mutant expressed in Xenopus oocytes assessed as NMDA current at 0.5 mM relative to control; type: cell-based; conditions: Oocyte
[6] = test system: Glutamate receptor ionotropic, NMDA 2B (Homo sapiens), Q13224 [I655A]; test: Inhibition of NR2B receptor post-M3 I655A mutant expressed in Xenopus oocytes assessed as NMDA current at 0.5 mM relative to control; type: cell-based; conditions: Oocyte
[7] = Binding affinity to NR2B receptor […]/T103A mutant
[8] = Ratio of Kapp for wild type NR2B receptor to Kapp for NR2B receptor S645A/I641A mutant
[9] = test system: Glutamate receptor ionotropic, NMDA 2B (Homo sapiens), Q13224 [D101A]; test: Binding affinity to NR2B receptor ATD D101A mutant
[10] = test system: Glutamate receptor ionotropic, NMDA 2B (Homo sapiens), Q13224 [D101A]; test: Inhibition of NR2B receptor ATD D101A mutant expressed in Xenopus oocytes assessed as NMDA current at 0.5 mM relative to control; type: cell-based; conditions: Oocyte
[11] = test system: Glutamate receptor ionotropic, NMDA 2B (Homo sapiens), Q13224 [N616A]; test: Inhibition of NR2B receptor M2 N616A mutant expressed in Xenopus oocytes assessed as NMDA current at 0.5 mM relative to control; type: cell-based; conditions: Oocyte
[12] = test system: Glutamate receptor ionotropic, NMDA 2B (Homo sapiens), Q13224 [S546A]; test: Inhibition of NR2B receptor Pre-M1 S546A mutant expressed in Xenopus oocytes assessed as NMDA current at 0.5 mM relative to control; type: cell-based; conditions: Oocyte
[13] = test system: Glutamate receptor ionotropic, NMDA 2B (Homo sapiens), Q13224 [W559A]; test: Inhibition of NR2B receptor Pre-M1 W559A mutant expressed in Xenopus oocytes assessed as NMDA current at 0.5 mM relative to control; type: cell-based; conditions: Oocyte
[14] = Ratio of Kapp for wild type NR2B receptor to Kapp for NR2B receptor M3c S645A mutant
[15] = test system: Glutamate receptor ionotropic, NMDA 2B (Homo sapiens), Q13224 [N615A]; test: Inhibition of NR2B receptor M2 N615A mutant expressed in Xenopus oocytes assessed as NMDA current at 0.5 mM relative to control; type: cell-based; conditions: Oocyte
[16] = test system: Glutamate receptor ionotropic, NMDA 2B (Homo sapiens), Q13224 [A652T]; test: Binding affinity to NR2B receptor M3c A652T mutant
[17] = test system: Glutamate receptor ionotropic, NMDA 2B (Homo sapiens), Q13224 [S645A,I641A]; test: Binding affinity to NR2B receptor S645A/I641A mutant
[18] = test system: Glutamate receptor ionotropic, NMDA 2B (Homo sapiens), Q13224 [M654A]; test: Inhibition of NR2B receptor post-M3 M654A mutant expressed in Xenopus oocytes assessed as NMDA current at 0.5 mM relative to control; type: cell-based; conditions: Oocyte
[19] = Ratio of Kapp for wild type NR2B receptor to Kapp for NR2B receptor M3c T647A mutant
[20] = test system: Glutamate receptor ionotropic, NMDA 2B (Homo sapiens), Q13224 [S645A]; test: Binding affinity to NR2B receptor M3c S645A mutant
[21] = test system: Glutamate receptor ionotropic, NMDA 2B (Homo sapiens), Q13224 [L643A,S645A]; test: Binding affinity to NR2B receptor L643A/S645A mutant
[22] = test system: Glutamate receptor ionotropic, NMDA 2B (Homo sapiens), Q13224 [E552A]; test: Inhibition of NR2B receptor Pre-M1 E552A mutant expressed in Xenopus oocytes assessed as NMDA current at 0.5 mM relative to control; type: cell-based; conditions: Oocyte
[23] = test system: Glutamate receptor ionotropic, NMDA 2B (Homo sapiens), Q13224 [N542A]; test: Inhibition of NR2B receptor Pre-M1 N542A mutant expressed in Xenopus oocytes assessed as NMDA current at 0.5 mM relative to control; type: cell-based; conditions: Oocyte
[24] = test system: Glutamate receptor ionotropic, NMDA 2B (Homo sapiens), Q13224 [E106A]; test: Inhibition of NR2B receptor ATD E106A mutant expressed in Xenopus oocytes assessed as NMDA current at 0.5 mM relative to control; type: cell-based; conditions: Oocyte
[25] = test system: Glutamate receptor ionotropic, NMDA 2B (Homo sapiens), Q13224 [[…]]; test: Binding affinity to NR2B receptor M3c T647A mutant
[26] = test system: Glutamate receptor ionotropic, NMDA 2B (Homo sapiens), Q13224 [T103A]; test: Inhibition of NR2B receptor ATD T103A mutant expressed in Xenopus oocytes assessed as NMDA current at 0.5 mM relative to control; type: cell-based; conditions: Oocyte
[27] = test system: Glutamate receptor ionotropic, NMDA 2B (Homo sapiens), Q13224 [N649A]; test: Inhibition of NR2B receptor M3c N649A mutant expressed in Xenopus oocytes assessed as NMDA current at 0.5 mM relative to control; type: cell-based; conditions: Oocyte
[28] = test system: Glutamate receptor ionotropic, NMDA 2B (Homo sapiens), Q13224 [T103A]; test: Binding affinity to NR2B receptor ATD T103A mutant
[29] = test system: Glutamate receptor ionotropic, NMDA 2B (Homo sapiens), Q13224 [V558A]; test: Inhibition of NR2B receptor Pre-M1 V558A mutant expressed in Xenopus oocytes assessed as NMDA current at 0.5 mM relative to control; type: cell-based; conditions: Oocyte
[30] = test system: Glutamate receptor ionotropic, NMDA 2B (Homo sapiens), Q13224 [A652T]; test: Inhibition of NR2B receptor M3c A652T mutant expressed in Xenopus oocytes assessed as NMDA current at 0.5 mM relative to control; type: cell-based; conditions: Oocyte
[31] = test system: Glutamate receptor ionotropic, NMDA 2B (Homo sapiens), Q13224 [S645A]; test: Inhibition of NR2B receptor M3c S645A mutant expressed in Xenopus oocytes assessed as NMDA current at 0.5 mM relative to control; type: cell-based; conditions: Oocyte
[32] = Ratio of Kapp for wild type NR2B receptor to Kapp for NR2B receptor T647A/K234A mutant
[33] = test system: Glutamate receptor ionotropic, NMDA 2B (Homo sapiens), Q13224 [I641A]; test: Inhibition of NR2B receptor M3c I641A mutant expressed in Xenopus oocytes assessed as NMDA current at 0.5 mM relative to control; type: cell-based; conditions: Oocyte
[34] = Ratio of Kapp for wild type NR2B receptor to Kapp for NR2B receptor ATD T103A mutant
[35] = test system: Glutamate receptor ionotropic, NMDA 2B (Homo sapiens), Q13224 [I641A]; test: Binding affinity to NR2B receptor M3c I641A mutant
[36] = test system: Glutamate receptor ionotropic, NMDA 2B (Homo sapiens), Q13224 [F550A]; test: Inhibition of NR2B receptor Pre-M1 F550A mutant expressed in Xenopus oocytes assessed as NMDA current at 0.5 mM relative to control; type: cell-based; conditions: Oocyte

Chain of Glutamate receptor ionotropic, NMDA 2B (Homo sapiens), Q13224 [D101A] (Q13224 whole entry D101A): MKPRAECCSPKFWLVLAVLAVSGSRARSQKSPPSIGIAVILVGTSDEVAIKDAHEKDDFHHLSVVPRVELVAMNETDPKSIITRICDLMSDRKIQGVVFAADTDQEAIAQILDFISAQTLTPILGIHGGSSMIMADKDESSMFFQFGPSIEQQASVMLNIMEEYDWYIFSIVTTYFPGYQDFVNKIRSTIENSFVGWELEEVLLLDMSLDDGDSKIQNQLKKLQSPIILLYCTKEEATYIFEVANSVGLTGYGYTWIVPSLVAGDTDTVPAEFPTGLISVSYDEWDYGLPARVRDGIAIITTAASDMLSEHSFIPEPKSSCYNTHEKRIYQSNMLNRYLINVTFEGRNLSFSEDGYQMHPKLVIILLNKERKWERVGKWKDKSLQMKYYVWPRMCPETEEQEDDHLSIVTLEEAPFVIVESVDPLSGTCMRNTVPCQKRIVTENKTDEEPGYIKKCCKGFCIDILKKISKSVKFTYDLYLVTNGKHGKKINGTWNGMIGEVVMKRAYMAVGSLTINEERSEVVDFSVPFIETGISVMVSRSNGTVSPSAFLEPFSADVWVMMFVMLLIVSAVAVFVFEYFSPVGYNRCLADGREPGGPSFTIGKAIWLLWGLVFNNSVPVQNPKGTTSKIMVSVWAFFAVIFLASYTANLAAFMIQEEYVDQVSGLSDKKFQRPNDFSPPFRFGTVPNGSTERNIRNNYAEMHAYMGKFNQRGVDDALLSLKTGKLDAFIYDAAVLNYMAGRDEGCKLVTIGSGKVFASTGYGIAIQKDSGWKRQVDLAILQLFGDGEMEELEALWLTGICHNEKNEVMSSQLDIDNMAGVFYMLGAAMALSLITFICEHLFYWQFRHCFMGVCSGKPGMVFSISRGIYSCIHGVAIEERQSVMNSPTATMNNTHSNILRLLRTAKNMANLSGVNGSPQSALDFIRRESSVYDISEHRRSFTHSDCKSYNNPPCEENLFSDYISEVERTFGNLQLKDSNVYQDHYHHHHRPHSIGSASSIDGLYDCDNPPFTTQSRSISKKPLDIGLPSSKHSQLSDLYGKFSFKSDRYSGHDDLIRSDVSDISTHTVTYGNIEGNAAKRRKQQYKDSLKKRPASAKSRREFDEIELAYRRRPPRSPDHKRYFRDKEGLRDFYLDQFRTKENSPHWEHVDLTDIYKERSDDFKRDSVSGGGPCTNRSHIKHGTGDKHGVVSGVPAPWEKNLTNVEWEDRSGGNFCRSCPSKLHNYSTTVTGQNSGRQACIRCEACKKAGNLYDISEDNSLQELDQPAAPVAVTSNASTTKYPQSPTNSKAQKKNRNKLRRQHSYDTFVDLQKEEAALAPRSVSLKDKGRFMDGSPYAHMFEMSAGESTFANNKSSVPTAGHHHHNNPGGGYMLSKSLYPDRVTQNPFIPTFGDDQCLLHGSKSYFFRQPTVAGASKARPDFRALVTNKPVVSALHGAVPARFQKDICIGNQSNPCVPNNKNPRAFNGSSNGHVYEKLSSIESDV
Chain of Glutamate receptor ionotropic, NMDA 2B (Homo sapiens), Q13224 [A652T] (Q13224 whole entry A652T): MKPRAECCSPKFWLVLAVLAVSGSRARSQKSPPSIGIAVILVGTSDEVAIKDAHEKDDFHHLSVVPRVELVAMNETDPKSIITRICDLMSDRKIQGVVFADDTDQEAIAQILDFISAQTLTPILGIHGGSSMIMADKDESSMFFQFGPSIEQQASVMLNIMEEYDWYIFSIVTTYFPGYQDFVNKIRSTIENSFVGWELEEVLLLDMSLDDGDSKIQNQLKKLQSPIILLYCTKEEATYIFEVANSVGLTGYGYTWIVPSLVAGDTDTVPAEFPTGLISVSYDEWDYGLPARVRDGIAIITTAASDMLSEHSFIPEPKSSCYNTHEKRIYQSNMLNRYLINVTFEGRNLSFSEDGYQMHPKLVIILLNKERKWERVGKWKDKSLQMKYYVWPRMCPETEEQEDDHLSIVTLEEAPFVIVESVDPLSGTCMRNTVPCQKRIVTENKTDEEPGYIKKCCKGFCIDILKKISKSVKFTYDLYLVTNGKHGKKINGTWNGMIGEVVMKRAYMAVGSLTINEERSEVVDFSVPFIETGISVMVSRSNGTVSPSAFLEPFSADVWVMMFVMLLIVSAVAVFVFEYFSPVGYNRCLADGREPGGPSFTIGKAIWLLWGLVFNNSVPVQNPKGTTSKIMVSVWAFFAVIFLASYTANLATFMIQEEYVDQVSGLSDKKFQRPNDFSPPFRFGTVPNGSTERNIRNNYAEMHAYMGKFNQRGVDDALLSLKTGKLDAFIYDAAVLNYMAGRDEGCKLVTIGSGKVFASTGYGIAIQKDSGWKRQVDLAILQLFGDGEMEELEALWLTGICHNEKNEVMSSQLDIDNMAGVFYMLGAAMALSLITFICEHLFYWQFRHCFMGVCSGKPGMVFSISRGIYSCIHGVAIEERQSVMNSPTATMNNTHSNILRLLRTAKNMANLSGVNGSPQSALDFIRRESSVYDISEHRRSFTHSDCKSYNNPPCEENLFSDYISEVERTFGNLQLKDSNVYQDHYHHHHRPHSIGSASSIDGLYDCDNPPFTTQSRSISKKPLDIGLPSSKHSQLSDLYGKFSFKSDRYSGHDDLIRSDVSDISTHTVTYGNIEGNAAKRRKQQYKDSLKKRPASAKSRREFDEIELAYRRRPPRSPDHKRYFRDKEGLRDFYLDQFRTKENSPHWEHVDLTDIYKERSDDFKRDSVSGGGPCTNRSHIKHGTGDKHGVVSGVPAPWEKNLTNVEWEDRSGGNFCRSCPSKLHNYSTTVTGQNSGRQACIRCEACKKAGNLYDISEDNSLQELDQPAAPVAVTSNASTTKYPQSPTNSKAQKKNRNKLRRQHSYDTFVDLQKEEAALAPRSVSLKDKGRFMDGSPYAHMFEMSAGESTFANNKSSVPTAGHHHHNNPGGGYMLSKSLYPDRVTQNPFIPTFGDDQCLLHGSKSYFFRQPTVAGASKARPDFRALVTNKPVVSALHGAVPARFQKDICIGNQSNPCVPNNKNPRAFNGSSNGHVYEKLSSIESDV
Chain of Glutamate receptor ionotropic, NMDA 2B (Homo sapiens), Q13224 [I641A] (Q13224 whole entry I641A): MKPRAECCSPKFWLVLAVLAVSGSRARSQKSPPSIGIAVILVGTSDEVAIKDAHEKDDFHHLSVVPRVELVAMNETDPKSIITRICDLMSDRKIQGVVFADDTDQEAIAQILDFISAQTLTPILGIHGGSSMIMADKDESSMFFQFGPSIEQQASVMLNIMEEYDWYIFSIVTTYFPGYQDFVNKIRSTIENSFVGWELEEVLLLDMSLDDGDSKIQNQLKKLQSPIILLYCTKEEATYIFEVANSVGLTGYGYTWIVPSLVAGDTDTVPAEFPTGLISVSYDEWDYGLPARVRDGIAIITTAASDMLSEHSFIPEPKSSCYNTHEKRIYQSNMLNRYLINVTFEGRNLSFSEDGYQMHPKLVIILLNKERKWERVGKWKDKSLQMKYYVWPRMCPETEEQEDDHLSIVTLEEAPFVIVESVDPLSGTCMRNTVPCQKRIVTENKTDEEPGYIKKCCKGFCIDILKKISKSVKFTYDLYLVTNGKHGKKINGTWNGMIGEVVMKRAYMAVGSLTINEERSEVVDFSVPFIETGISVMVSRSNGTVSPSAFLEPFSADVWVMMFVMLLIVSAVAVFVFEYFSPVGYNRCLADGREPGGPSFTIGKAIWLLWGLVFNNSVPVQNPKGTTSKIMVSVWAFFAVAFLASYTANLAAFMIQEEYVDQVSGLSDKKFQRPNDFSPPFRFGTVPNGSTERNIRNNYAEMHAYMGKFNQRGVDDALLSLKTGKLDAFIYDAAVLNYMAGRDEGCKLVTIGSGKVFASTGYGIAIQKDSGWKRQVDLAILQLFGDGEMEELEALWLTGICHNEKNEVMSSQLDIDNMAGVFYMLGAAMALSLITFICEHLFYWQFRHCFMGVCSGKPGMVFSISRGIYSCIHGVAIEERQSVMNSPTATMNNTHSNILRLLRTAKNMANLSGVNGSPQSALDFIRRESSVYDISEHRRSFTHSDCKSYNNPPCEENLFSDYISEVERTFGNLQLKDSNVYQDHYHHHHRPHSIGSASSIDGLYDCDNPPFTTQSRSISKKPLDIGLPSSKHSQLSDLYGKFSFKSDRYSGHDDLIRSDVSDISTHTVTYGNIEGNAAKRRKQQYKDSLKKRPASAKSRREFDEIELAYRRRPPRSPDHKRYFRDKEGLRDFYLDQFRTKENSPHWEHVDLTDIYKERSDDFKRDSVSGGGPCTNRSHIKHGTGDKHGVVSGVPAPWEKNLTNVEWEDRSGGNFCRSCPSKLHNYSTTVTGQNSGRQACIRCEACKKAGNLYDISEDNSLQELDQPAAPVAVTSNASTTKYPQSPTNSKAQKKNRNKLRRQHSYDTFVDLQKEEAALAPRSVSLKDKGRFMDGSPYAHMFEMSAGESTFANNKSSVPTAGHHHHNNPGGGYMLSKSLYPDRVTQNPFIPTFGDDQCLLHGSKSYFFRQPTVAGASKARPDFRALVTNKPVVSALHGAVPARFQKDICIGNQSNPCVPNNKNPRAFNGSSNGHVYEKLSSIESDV

- Kapp [1]: 5.64 mM
- inhibition [2]: 70%
- Activity [3]: inactive
- Ratio Ki(app) [4]: 2.9
- inhibition [5]: 84%
- inhibition [6]: 76%
- Kapp [7]: 6.73 mM
- Ratio Ki(app) [8]: 5.1
- Kapp [9]: 2.76 mM
- inhibition [10]: 83%
- inhibition [11]: 72%
- inhibition [12]: 64%
- Activity [13]: inactive
- Ratio Ki(app) [14]: 4.9
- inhibition [15]: 66%
- Kapp [16]: 2.92 mM
- Kapp [17]: 4.43 mM
- inhibition [18]: 71%
- Ratio Ki(app) [19]: 7.5
- Kapp [20]: 4.23 mM
- Kapp [21]: 6.68 mM
- inhibition [22]: 77%
- inhibition [23]: 73%
- inhibition [24]: 74%
- Kapp [25]: 6.5 mM
- inhibition [26]: 85%
- Activity [27]: inactive
- Kapp [28]: 4.21 mM
- inhibition [29]: 71%
- inhibition [30]: 83%
- inhibition [31]: 85%
- Ratio Ki(app) [32]: 8
- inhibition [33]: 84%
- Ratio Ki(app) [34]: 4.8
- Kapp [35]: 2.45 mM
- inhibition [36]: 62%
SMILES: NC(=O)OCC(COC(N)=O)c1ccccc1
